Data as given in ChEMBL document CHEMBL4725372, “Rational Design of Suprastat: A Novel Selective Histone Deacetylase 6 Inhibitor with the Ability to Potentiate Immunotherapy in Melanoma Models” (J Med Chem, 2020).
Activity calls are given as the source filed them. No cut-off for these calls is given here.

How the values were obtained:
Histone deacetylase 11 = molecular target: T1, Histone deacetylase 11 (Homo sapiens, UniProt Q96DB2); experiment: Inhibition of human HDAC11 expressed in HEK293/T17 cells pre-incubated for 10 mins before […] addition and measured after 30 mins by fluorescence-based assay; assay type: cell-based
T1 sequence (Q96DB2 whole entry): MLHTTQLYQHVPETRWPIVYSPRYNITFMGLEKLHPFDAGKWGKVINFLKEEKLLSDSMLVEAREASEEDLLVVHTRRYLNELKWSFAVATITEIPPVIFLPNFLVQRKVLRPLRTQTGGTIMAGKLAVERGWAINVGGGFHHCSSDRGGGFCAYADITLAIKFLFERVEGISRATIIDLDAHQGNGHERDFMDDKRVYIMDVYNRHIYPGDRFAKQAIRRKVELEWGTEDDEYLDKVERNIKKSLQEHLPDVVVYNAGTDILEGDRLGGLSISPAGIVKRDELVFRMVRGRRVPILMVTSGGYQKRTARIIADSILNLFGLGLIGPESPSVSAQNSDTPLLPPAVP

HEK293 [1] = experiment: Selectivity index, ratio of IC50 for human HDAC4 expressed in HEK293/T17 cells (unknown origin) to human HDAC6 expressed in HEK293/T17 cells; assay type: cell-based
HEK293 [2] = experiment: Selectivity index, ratio of IC50 for human HDAC5 expressed in HEK293/T17 cells (unknown origin) to human HDAC6 expressed in HEK293/T17 cells; assay type: cell-based
HEK293 [3] = experiment: Selectivity index, ratio of IC50 for human HDAC7 expressed in HEK293/T17 cells (unknown origin) to human HDAC6 expressed in HEK293/T17 cells; assay type: cell-based
HEK293 [4] = experiment: Selectivity index, ratio of IC50 for human HDAC9 expressed in HEK293/T17 cells (unknown origin) to human HDAC6 expressed in HEK293/T17 cells; assay type: cell-based
[5] = Half life in SGF by LC-MS/MS analysis; assay type: ADME
[6] = Half life in human plasma at 10 uM by LC-MS/MS analysis; assay type: ADME, cell-free
[7] = molecular target: Histone deacetylase (Homo sapiens) (UniProt Q13547+O15379+Q9UBN7+Q92769+Q9UQL6+Q8WUI4+Q9BY41+Q96DB2+P56524+Q9UKV0+Q969S8); experiment: Inhibition of human HDAC in human WM164 cells increase in acetylated histone H3 levels at 0.1 to 10 uM by immunoblot analysis; assay type: cell-based; details: dose microM 0.1-10
[8] = molecular target: T2, Protein deacetylase HDAC6 (Mus musculus) (UniProt Q9Z2V5); experiment: Inhibition of HDAC6 in INFgamma and LPS-induced mouse bone marrow derived macrophages assessed as decrease in IL10 gene expression at 5 uM by quantitative PCR analysis; assay type: tissue-based; details: Macrophage
T2 sequence (whole entry): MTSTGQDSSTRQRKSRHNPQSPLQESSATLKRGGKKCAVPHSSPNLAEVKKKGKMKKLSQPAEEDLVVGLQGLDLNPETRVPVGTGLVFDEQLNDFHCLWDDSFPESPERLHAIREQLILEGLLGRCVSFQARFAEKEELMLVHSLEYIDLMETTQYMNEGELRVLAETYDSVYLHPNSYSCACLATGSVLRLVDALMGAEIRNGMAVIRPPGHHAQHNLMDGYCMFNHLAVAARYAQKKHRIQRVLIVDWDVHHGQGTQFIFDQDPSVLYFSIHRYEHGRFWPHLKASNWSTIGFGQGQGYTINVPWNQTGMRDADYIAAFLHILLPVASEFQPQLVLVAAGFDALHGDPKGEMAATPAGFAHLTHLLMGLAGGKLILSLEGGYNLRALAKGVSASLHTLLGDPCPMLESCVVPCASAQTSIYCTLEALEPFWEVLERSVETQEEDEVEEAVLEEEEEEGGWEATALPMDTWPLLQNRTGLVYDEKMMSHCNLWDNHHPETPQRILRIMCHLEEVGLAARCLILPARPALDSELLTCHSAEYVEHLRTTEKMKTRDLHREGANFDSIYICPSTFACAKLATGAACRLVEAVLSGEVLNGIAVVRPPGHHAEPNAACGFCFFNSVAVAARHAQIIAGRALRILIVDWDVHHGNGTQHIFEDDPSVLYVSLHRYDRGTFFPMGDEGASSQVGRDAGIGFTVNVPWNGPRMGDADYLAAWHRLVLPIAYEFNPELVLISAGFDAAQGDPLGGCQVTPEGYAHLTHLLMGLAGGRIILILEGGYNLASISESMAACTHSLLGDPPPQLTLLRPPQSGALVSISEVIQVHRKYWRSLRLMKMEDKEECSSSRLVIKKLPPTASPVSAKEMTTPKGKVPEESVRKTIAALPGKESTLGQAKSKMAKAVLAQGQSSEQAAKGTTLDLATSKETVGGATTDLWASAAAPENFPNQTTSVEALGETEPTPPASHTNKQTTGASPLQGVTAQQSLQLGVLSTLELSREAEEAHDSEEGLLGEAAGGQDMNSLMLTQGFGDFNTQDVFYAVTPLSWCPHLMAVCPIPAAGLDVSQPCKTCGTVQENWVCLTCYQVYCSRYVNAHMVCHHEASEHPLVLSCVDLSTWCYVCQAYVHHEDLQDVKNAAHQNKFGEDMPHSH

[9] = molecular target: T2, Protein deacetylase HDAC6 (Mus musculus); experiment: Inhibition of human HDAC6 in mouse RAW264.7 cells assessed as increase in acetylated alpha-tubulin levels at 1 to 10 uM by immunoblot analysis; assay type: cell-based; details: Macrophage, dose microM 1-10
SM1 = experiment: Potentiation of antitumor immune response in C57BL/6 mouse harboring mouse SM1 cells assessed as decrease in tumor burden at 25 mg/kg, ip dosed 5 days per week before starting 15 mg/kg, ip anti-PD1 immune checkpoint blockade therapy measured on day 14; assay type: functional, organism-based; details: time 14.0 day
Mus musculus [10] = experiment: Immunomodulatory activity in C57BL/6 mouse harboring mouse SM1 cells assessed as increase in M1/M2 macrophages ratio at 25 mg/kg, ip dosed 5 days per week before starting 15 mg/kg, ip anti-PD1 immune checkpoint blockade therapy by flow cytometry; assay type: functional, organism-based; details: time 5.0 day/week
Mus musculus [11] = experiment: Immunomodulatory activity in C57BL/6 mouse harboring mouse SM1 cells assessed as increase in M1/M2 macrophages ratio at 25 mg/kg, ip dosed 5 days per week by flow cytometry; assay type: functional, organism-based; details: time 5.0 day/week
Mus musculus [12] = experiment: Immunomodulatory activity in C57BL/6 mouse harboring mouse SM1 cells assessed as increase in CD8+ effector T-cells and effector memory cells at 25 mg/kg, ip dosed 5 days per week by flow cytometry; assay type: functional, organism-based; details: time 5.0 day/week
Mus musculus [13] = experiment: Immunomodulatory activity in C57BL/6 mouse harboring mouse SM1 cells assessed as effect on CD4+ T cells at 25 mg/kg, ip dosed 5 days per week before starting 15 mg/kg, ip anti-PD1 immune checkpoint blockade therapy by flow cytometry; assay type: functional, organism-based; details: time 5.0 day/week
Mus musculus [14] = experiment: Immunomodulatory activity in C57BL/6 mouse harboring mouse SM1 cells assessed as increase in natural killer cells at 25 mg/kg, ip dosed 5 days per week before starting 15 mg/kg, ip anti-PD1 immune checkpoint blockade therapy by flow cytometry; assay type: functional, organism-based; details: time 5.0 day/week
Mus musculus [15] = experiment: Immunomodulatory activity in C57BL/6 mouse harboring mouse SM1 cells assessed as reduction in natural killer T cells at 25 mg/kg, ip dosed 5 days per week before starting 15 mg/kg, ip anti-PD1 immune checkpoint blockade therapy by flow cytometry; assay type: functional, organism-based; details: time 5.0 day/week

IC50 (Histone deacetylase 11): > 50 µM
half-life [5]: > 5 h
half-life at 10 µM [6]: > 5 h
inhibition [7]: Active
inhibition [8]: Active
inhibition [9]: Dose-dependent effect
SMILES: NCc1ccc(NC(=O)N(CCCCO)Cc2ccc(C(=O)NO)cc2)cc1
Ratio IC50 (HEK293 [1]): 20600
Ratio IC50 (HEK293 [2]): 8550
Ratio IC50 (HEK293 [3]): 3680
Ratio IC50 (HEK293 [4]): 15700
TGI (SM1): Active
Activity (Mus musculus [10]): Active
Activity (Mus musculus [11]): Active
Activity (Mus musculus [12]): Active
Activity (Mus musculus [13]): inactive
Activity (Mus musculus [14]): Active
Activity (Mus musculus [15]): Active
